The values that follow come from ChEMBL document CHEMBL3046933, “Synthesis and evaluation of a series of aminocyanopyridines as antimicrobial agents” (2011).

What all share (type): functional
One experiment relates to Priestia megaterium. As to the kind of experiment: Antibacterial activity against Bacillus megaterium clinical isolate at 100 ug/ml after 24 hr by disk diffusion method. The settings on record: read-out: DIZ. (In general: In agar diffusion tests the substance spreads into inoculated agar from a disc or well.)
The test system of experiment [1] is Micrococcus luteus. As to the kind of experiment: Antibacterial activity against Micrococcus luteus NRRLB 4375 at 100 ug/ml after 24 hr by disk diffusion method. To be noted: NRRLB 4375, 24 h, read-out: DIZ.
Experiment [2] has as its system Micrococcus luteus. The experiment can be described thus: Antibacterial activity against Micrococcus luteus NRRLB 4375 by macrobroth dilution method. (In general: Dilution methods test growth across graded concentrations, often in twofold steps.)
The subject of experiment [3] is Bacillus subtilis. The experiment can be described thus: Antibacterial activity against Bacillus subtilis RSKK 244 at 100 ug/ml after 24 hr by disk diffusion method. To be noted: RSKK 244, 24 h, read-out: DIZ.
Experiment [4] concerns Pseudomonas aeruginosa. The experiment can be described thus: Antibacterial activity against Pseudomonas aeruginosa […] at 100 ug/ml after 24 hr by disk diffusion method. To be noted: read-out: DIZ.
For experiment [5], the system named is Bacillus subtilis. The experiment can be described thus: Antibacterial activity against Bacillus subtilis RSKK 244 by macrobroth dilution method.
The subject of experiment [6] is Pseudomonas aeruginosa. The experiment can be described thus: Antibacterial activity against Pseudomonas aeruginosa […] by macrobroth dilution method.
The next experiment relates to Candida albicans. The experiment can be described thus: Antifungal activity against Candida albicans ATCC 90028 at 100 ug/ml by disk diffusion method. The settings on record: read-out: DIZ.

Converted amounts (≈) assume the structure as drawn.

`CC1(C)S[C@@H]2[C@H](NC(=O)[C@H](N)c3ccccc3)C(=O)N2[C@H]1C(=O)O` [AMPICILLIN]: the results for the zone of inhibition at 100 µg/mL in the experiment with Priestia megaterium, in the experiment with Micrococcus luteus [1] and in the experiment with Bacillus subtilis [3] were 10 mm, 31 mm and 15 mm, respectively. Also, it took 8 µg/mL (≈ 22.9 µM) to inhibit growth against Micrococcus luteus [2] (MIC).

Regarding `Cc1ccsc1-c1c(C#N)c(N)nc2c1CCCCC2`, the figures for the zone of inhibition at 100 µg/mL in the experiment on Pseudomonas aeruginosa [4] and with Bacillus subtilis [3] were 17 mm and 10 mm, respectively. For the same molecule, the MIC in the experiment on Bacillus subtilis [5] was found to be 37.5 µg/mL (≈ 132 µM); against Pseudomonas aeruginosa [6], 12.5 µg/mL (≈ 44.1 µM).

In the case of `Cc1ccc(-c2c(C#N)c(N)nc3c2CCC3)s1`, the figures for the zone of inhibition at 100 µg/mL with Micrococcus luteus [1], in the experiment with Pseudomonas aeruginosa [4] and in the experiment on Bacillus subtilis [3] were 12 mm, 15 mm and 15 mm, respectively. Besides, the MIC with Bacillus subtilis [5] was determined as 25 µg/mL (≈ 97.9 µM); in the experiment on Micrococcus luteus [2], 37.5 µg/mL (≈ 147 µM); in the experiment with Pseudomonas aeruginosa [6] it was 25 µg/mL (≈ 97.9 µM).

`Cc1ccc(-c2c(C#N)c(N)nc3c2CCC3)o1`: the zone of inhibition at 100 µg/mL turned out to be 15 mm with Micrococcus luteus [1], 17 mm in the experiment with Pseudomonas aeruginosa [4] and 22.5 mm with Bacillus subtilis [3]. The MIC with Bacillus subtilis [5] was determined as 12.5 µg/mL (≈ 52.2 µM); with Micrococcus luteus [2], 25 µg/mL (≈ 104 µM); in the experiment on Pseudomonas aeruginosa [6], 12.5 µg/mL (≈ 52.2 µM).

Take `Cc1ccsc1-c1c(C#N)c(N)nc2c1CCCC2`: the zone of inhibition at 100 µg/mL in the experiment on Micrococcus luteus [1] and in the experiment on Pseudomonas aeruginosa [4] was 9 mm throughout. Also, the MIC with Micrococcus luteus [2] came to 37.5 µg/mL (≈ 139 µM); in the experiment on Pseudomonas aeruginosa [6], 25 µg/mL (≈ 92.8 µM).

Take `CC1(C)S[C@@H]2[C@H](NC(=O)Cc3ccccc3)C(=O)N2[C@H]1C(=O)O` [PENICILLIN G]: the zone of inhibition at 100 µg/mL in the experiment with Micrococcus luteus [1] was 9 mm.

For the molecule `CN(C)[C@@H]1C(O)=C(C(N)=O)C(=O)[C@@]2(O)C(O)=C3C(=O)c4c(O)cccc4[C@@](C)(O)[C@H]3C[C@@H]12` [TETRACYCLINE], the zone of inhibition at 100 µg/mL with Micrococcus luteus [1] was 28 mm.

Take `Cc1ccc(-c2c(C#N)c(N)nc3c2CCCCC3)s1`: the zone of inhibition at 100 µg/mL in the experiment on Micrococcus luteus [1] was determined as 20 mm; with Pseudomonas aeruginosa [4], 19 mm; with Bacillus subtilis [3] it was 10 mm. Moreover, the MIC against Bacillus subtilis [5] turned out to be 37.5 µg/mL (≈ 132 µM); with Micrococcus luteus [2], 25 µg/mL (≈ 88.2 µM); against Pseudomonas aeruginosa [6] it was 25 µg/mL (≈ 88.2 µM).

For `OC(Cn1cncn1)(Cn1cncn1)c1ccc(F)cc1F` [FLUCONAZOLE], 8 µg/mL (≈ 26.1 µM) was the least that counted as inhibitory against Micrococcus luteus [2] (MIC).

Consider `Cc1ccsc1-c1c(C#N)c(N)nc2c1CCC2`, for which the zone of inhibition at 100 µg/mL in the experiment with Micrococcus luteus [1] worked out at 11 mm; in the experiment on Bacillus subtilis [3], 13 mm. Also, the minimum inhibitory concentration (MIC) in the experiment with Bacillus subtilis [5] and against Micrococcus luteus [2] was 37.5 µg/mL (≈ 147 µM) in each case.

On to `Cc1ccc(-c2c(C#N)c(N)nc3c2CCCC3)o1`, for which, in the experiment on Micrococcus luteus [1], the zone of inhibition at 100 µg/mL came to 11 mm. Moreover, the MIC against Micrococcus luteus [2] worked out at 37.5 µg/mL (≈ 148 µM).

On to `CC(=O)N1CCN(c2ccc(OCC3COC(Cn4ccnc4)(c4ccc(Cl)cc4Cl)O3)cc2)CC1` (stereo not drawn) [KETOCONAZOLE], for which the zone of inhibition at 100 µg/mL with Candida albicans stood at 16 mm.

Turning to `Cc1ccc(-c2c(C#N)c(N)nc3c2CCCC3)s1`, the zone of inhibition at 100 µg/mL came out at 12 mm in the experiment on Micrococcus luteus [1] and 20 mm in the experiment on Pseudomonas aeruginosa [4]. Further, the values for the MIC with Micrococcus luteus [2] and with Pseudomonas aeruginosa [6] were 25 µg/mL (≈ 92.8 µM) and 12.5 µg/mL (≈ 46.4 µM), respectively.

On to `Cc1ccc(-c2c(C#N)c(N)nc3c2CCCCC3)o1`, for which the zone of inhibition at 100 µg/mL with Micrococcus luteus [1] came to 9 mm; in the experiment on Pseudomonas aeruginosa [4], 14 mm. In addition, the MIC in the experiment with Micrococcus luteus [2] and against Pseudomonas aeruginosa [6] was 25 µg/mL (≈ 93.5 µM) each time.

Usually MIC stands for the lowest concentration that inhibits growth of the organism. Higher therefore signals a need for much substance.
